Measurements reported in patent publication US11471502B2, “Neuroprotective peptide” (UNIVERSITY COLLEGE CARDIFF C[…], priority 2017, dated 2022).
Entries after “also recorded” stand apart in the source; their conditions may differ.

Tests used:
WT mice = assay: Novel Object Recognition Test (NOR); format: in vivo, mouse; conditions: for memory formation and consolidation in NOR: 24, 48, 72 and 120 h (up to 5 days)
Procedure: a) After a 5 min habituation session in the empty arena on day 1, mice were injected with RB5 (20 mg/kg) or vehicle one hour before the training session with two identical objects on day 2 and were then evaluated for their long-term memory on subsequent days. Discrimination Index (D.I.) was tested at different time points 24, 48, 72, and 120 hrs (a) and also up to 168 h (b). […] On subsequent days, while the RB5 group remained high, the Scramble group returned to basal levels. *p<0.01**p<0.0001. […] At 24 h, D.I. of RB5 group was highly significant (Independent sample t-test t26=4.428 P<0.01, SCR (n=14) RB5 (=14)) as well as at 48 h (Independent sample t-test t38=4.210 P<0.0001, SCR (n=18) RB5 (=22)). […] P<0.001, P<0.01.
The test was performed in an open square box (45×45×45 cm), placed in a quiet room with dim light. The objects used were: parallelepipeds in metal and glass vials filled with water. They had no natural significance for mice and they had never been associated with reinforcement before. The protocol required three days and it was performed as follows:
First day: the mice were individually placed in the empty arena for 5 min in order to familiarize with it and to measure their anxiety (thigmotaxis trial). The percentage of thigmotaxis is calculated as the time spent in the peripheral zone out of the total time spent in the arena (300 sec.). Animals showing a thigmotaxis>90% are discarded from the sample because considered biased for anxiety.
Second day: Mice were injected with either […] CPP-SCR or CPP-RB5 1 h prior to training and then they were placed into the arena for 10 minutes, where they were allowed to explore two identical objects (training trial). Therefore, two different measures (in seconds) for Left Object and Right Object were obtained. […] Then, percentages of exploration for each object were calculated as: the time spent exploring LO or RO, out of the total time of exploration (RO+LO). According to these percentages, experimenter decided where to place the novel object for the test trial.
Third day: one of the two identical objects (Parallelepiped) was changed with a new object (Vial) and the mice were allowed to explore them for 10 minutes (test trial).
Times of exploration for the familiar object (FO) and for the novel object (NO) were separately recorded, with the same procedure as for the training trial. A cut-off of 6 seconds was also considered. In order to attest recognition memory, a discrimination index (D.I.) was calculated as (total time of exploration of NO−total time of exploration of FO)/total time of exploration of (FO+NO). D.I. index is comprised between −1 and +1. A D.I. of 1 would mean perfect memory retention for the […]. Conversely, the more time the animal spends exploring FO the lower will be the D.I. value, meaning poor memory retention for FO. SMART software (Panlab, Barcelona, Spain) was used to run the experiment.

[1] = tested on: ERK-dependent nuclear signalling (histone H3) and cytoplasmic signalling (ribosomal protein S6); assay: Ex vivo acute slices, glutamate stimulation, immunofluorescence for phospho-acetyl histone H3 and phospho-S6; format: cell-based, mouse; conditions: 50 μM peptide, glutamate 100 μM
Procedure: a) RB5 peptide selectively promoted activation of ERK2. Acute striatal slices either pre-treated with Scramble (SCR) or RB5 peptide (50 μM) and then stimulated 10 minutes with glutamate (GLU) (100 μM) or vehicle were analysed in Western blot (left panel) and probed with anti phospho ERK antibodies (p44^ERK1 and p42^ERK2) and anti ERK1/2 antibody. GAPDH was used as loading control. […] No changes were detected in the total ERK1 and ERK2 levels. GAPDH was used as loading control. […] Mice injected with a single dose of CPP-SCR or CPP-RB5 peptides (20 mg/kg, i.p.) were rapidly perfused 1 h later and brains were dissected and further analysed for IHC and immunofluorescence. Representative photomicrographs of pERK1/2, pMSK, pAch3, pELK1 and c-Fos expression in the striatum. […] Two-way ANOVA Bonferroni post hoc comparison: one black star, p<0.05, two black stars, p<0.01, one white star, p<0.001. p) Dose response curve of RB5 peptide for ERK activation. 200 μm thick striatal slices were freshly prepared from 2-month old mice and transferred into a perfusion chamber for 1 h at 32° C. Slices were pre-treated with different doses of RB5 or scrambled control. After 1 h, slices for each dose was fixed in PFA 4% for 15 min. 18 μm cryo-sections were processed for immunohistochemistry with anti-phospho p44/p42 MAP kinase. Neuronal quantification was performed with ImageJ software by counting the number of phospho-ERK positive cells in each slice. The level of activation is expressed on the Y-axis as arbitrary units (AU). Doses are reported in a logarithmic scale (Log 10) on the X-axis. The EC50 was calculated using GraphPad Prism software.
Adult mice were anesthetized and decapitated. […]
Slides were placed in a humid chamber and 1 h after blocking in 5% normal goat serum and 0.1% Triton X-100 solution, they were incubated overnight at 4° C. with one of the following primary antibodies: anti-phospho-S6 ribosomal protein (Ser235/236) (1:200 Cell Signalling Technology, Danvers, Mass.), anti-phospho-S6 ribosomal protein (Ser240/244) (1:200 Cell Signalling Technology, Danvers, Mass.), anti-phospho (Ser10)-acetylated (Lys14) histone H3 (1:1000 (Millipore, Billerica, Mass.) or Cleaved Caspase 3 (1:200 Cell Signalling Technology, Danvers, Mass.) and anti-NeuN (1:1000 Millipore, Billerica, Mass.) followed by appropriate secondary antibodies. […] Neuronal quantification is performed with ImageJ software by counting phospho-S6 immunoreactive or pH3 neurons among NeuN positive neurons in each slide (n=10 for each experimental group). […]

GRKKRRQRRRPPQGGGGGEPRRTEGVGPGVPGEVEMVKGQPFDV (listed as Homo sapiens) [CPP-RB5]
memory formation and consolidation in NOR (WT mice): greater performances in remembering the object
phospho (Ser10)-acetyl(Lys14)-histone-H3, nuclear ERK signalling [1]: massive intra-nuclear MAPKs substrate activation
phospho-S6 ribosomal protein, cytosolic/cytoplasmic signalling [1]: no effect

CSCC[C@H](NC(=O)[C@H](CCC(=O)O)NC(=O)[C@@H](NC(=O)[C@H](CCC(=O)O)NC(=O)CNC(=O)[C@@H]1CCCN1C(=O)[C@@H](NC(=O)CNC(=O)[C@@H]1CCCN1C(=O)CNC(=O)[C@@H](NC(=O)CNC(=O)[C@H](CCC(=O)O)NC(=O)[C@@H](NC(=O)[C@H](CCCNC(=N)N)NC(=O)[C@H](CCCNC(=N)N)NC(=O)[C@@H]1CCCN1C(=O)[C@H](CCC(=O)O)NC(=O)CNC(=O)CNC(=O)CNC(=O)CNC(=O)CNC(=O)[C@H](CCC(N)=O)NC(=O)[C@@H]1CCCN1C(=O)[C@@H]1CCCN1C(=O)[C@H](CCCNC(=N)N)NC(=O)[C@H](CCCNC(=N)N)NC(=O)[C@H](CCCNC(=N)N)NC(=O)[C@H](CCC(N)=O)NC(=O)[C@H](CCCNC(=N)N)NC(=O)[C@H](CCCNC(=N)N)NC(=O)[C@H](CCCCN)NC(=O)[C@H](CCCCN)NC(=O)[C@H](CCCNC(=N)N)NC(=O)CNC(C)=O)[C@@H](C)O)C(C)C)C(C)C)C(C)C)C(=O)N[C@H](C(=O)N[C@@H](CCCCN)C(=O)NCC(=O)N[C@@H](CCC(N)=O)C(=O)N1CCC[C@H]1C(=O)N[C@@H](Cc1ccccc1)C(=O)N[C@@H](CC(=O)O)C(=O)N[C@@H](C(=O)O)C(C)C)C(C)C [RB5]
memory formation and consolidation in NOR (WT mice): significantly enhanced
Discrimination Index (D.I.) (WT mice; 24 h, 20 mg/kg 1 h before training): significantly higher than the Scramble group
Discrimination Index (D.I.) (WT mice; 48 h, vs chance level): greatly above it
Discrimination Index (D.I.) (WT mice; 72 h): remained highly significant
Discrimination Index (D.I.) (WT mice; 120 h): still highly significant
Discrimination Index (D.I.) / performance (WT mice; 168 h): dropped to basal levels indistinguishable from SCR group; also recorded: went down to basal levels indistinguishable from SCR group
phospho (Ser10)-acetyl(Lys14)-histone-H3, nuclear ERK signalling [1]: promotes
phospho-S6 ribosomal protein, cytosolic/cytoplasmic signalling [1]: not activated
